Measurements from patent US8962685B2 (Vireo Systems Inc., priority 2003, dated 2015).

Key:
[1] = Plasma uptake and relative bioavailability after oral administration in healthy human volunteers (Example 3); settings: for Plasma creatine following administration: oral 5 gram dose, versus pre-dose
Excerpt: The order of treatment was randomly assigned and there was a 1-week wash out period between creatine treatments.

[2] = Stability of creatine in aqueous solution over 45 days (Example 4)
Excerpt: With regard to latent product storage, standard shelf-life according to the FDA is considered to be the time it takes for 10 percent of the starting material to degrade in a given sample. […] Each data point is representative of three different samples. […] The creatine content of each sample was examined over a 45-day period.

[3] = cited from earlier work

| Compound | increase in bioavailability ([1]; in vivo, po) | Plasma creatine following administration [1] | shelf-life in aqueous solution (time for 10 percent to degrade) ([2]; 1.5 mg/mL) [days] | original creatine remaining in the aqueous solution ([2]; buffer, 1080 h, 1.5 mg/mL) | standard degradation time in water [3] | original creatine remaining in the aqueous solution ([2]; room temperature (about 21° C.), 45 days, initially 1.5 mg/mL) |
| --- | --- | --- | --- | --- | --- | --- |
| CN(CC(=O)O)C(=N)N.Cl [creatine HCl, creatine hydrochloride] | approximately 50% | significantly elevated | ≥ 45 | approximately 95% | – | – |
| CCOC(=O)CN(C)C(=N)N [creatine ethyl ester] | – | – | – | – | less than one | – |
| CN(CC(=O)O)C(=N)N.O [creatine monohydrate] | – | significantly elevated | – | – | – | about 75% |
